Key:
WX-02 GDH [1] = molecular target: T1, WX-02 GDH (Bacillus licheniformis, UniProt X5FDW5); test: NADH formation at […] nm; format: biochemical; conditions: 4 mM NAD+; 50 mM substrate; Z buffer pH 7.0; 37 °C; 1 mM MgSO4, 10 mM DTT
T1 construct: primers encode native N-term MSKSVK (MG added before) and C-term AESYHD
T1 sequence (X5FDW5 1-367): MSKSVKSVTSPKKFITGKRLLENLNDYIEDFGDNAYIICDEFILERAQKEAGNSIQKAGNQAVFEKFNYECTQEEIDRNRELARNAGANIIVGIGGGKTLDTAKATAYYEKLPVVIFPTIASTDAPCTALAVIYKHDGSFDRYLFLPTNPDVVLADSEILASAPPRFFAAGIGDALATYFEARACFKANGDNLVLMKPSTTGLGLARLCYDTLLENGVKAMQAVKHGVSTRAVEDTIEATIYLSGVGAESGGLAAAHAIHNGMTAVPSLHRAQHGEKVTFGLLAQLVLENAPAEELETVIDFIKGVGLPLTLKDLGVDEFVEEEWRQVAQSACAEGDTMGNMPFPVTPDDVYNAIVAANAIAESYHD

WX-02 GDH [2] = molecular target: T1, WX-02 GDH; test: NADH oxidation at […] nm; format: biochemical; conditions: 0.2 mM NADH; 50 mM substrate; Z buffer pH 7.0; 37 °C; 1 mM MgSO4, 10 mM DTT

Row | Structure (SMILES) | NADH formation at 340 nm (WX-02 GDH [1]) | NADH oxidation at 340 nm (WX-02 GDH [2])
1 | C[C@@H](O)[C@@H](C)O [D-2,3-BD] | this enzyme exhibited the highest activity towards D-2,3-BD among various substrates | –
2 | CC(=O)[C@@H](C)O [D-AC] | – | WX-02 GDH accepted D-AC, D-2,3-BD, meso-2,3-BD, and glycerol as substrates

Reference: paper PMC4890260, “Engineering Bacillus licheniformis for the production of meso-2,3-butanediol” (Biotechnology for Biofuels, 2016)
